The text below walks through data of patent US9822124B2, “Bicyclic heteroaromatic carboxamide compounds useful as Pim kinase inhibitors” (Incyte Corporation, priority 2014, dated 2017).

Where only a bound is given, the exact number is not on record here.

Holding throughout (assay type): biochemical
The target of assay [1] is Pim-1 (Homo sapiens (Human), UniProt P11309). Nature of the assay: Pim-1 kinase assay (AlphaScreen, Biotin-labeled BAD peptide substrate). Particulars: 1 mM ATP; read-out: Pim1 IC50. The procedure, abridged:
(§1)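 Kinase reactions ran 1 h at 25° C, pH 7.5, with 0.05 μM biotin-BAD peptide, 1 mM ATP, and 2.5 μM Pim-1 or 1.25 μM Pim-3. EDTA stop buffer carried anti-phospho-Bad (Ser112) antibody plus streptavidin donor and Protein-A acceptor beads. AlphaScreen signal was read after 1 h in the dark.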

For assay [2], the target named is Pim-2 (Homo sapiens (Human), UniProt Q9P1W9). Nature of the assay: Pim-2 kinase assay (TR-FRET, Fluorescein-labeled CREBtide peptide substrate). Particulars: 1 mM ATP; read-out: Pim2 IC50. The procedure, abridged:
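Human Pim-2 (1 nM) phosphorylated 0.05 μM fluorescein-CREBtide with 1 mM ATP for 2 h at 25 °C in Tris buffer pH 7.5 containing MgCl2, DTT, BSA and Tween-20. Reactions were stopped with EDTA and Tb-anti-pSer133 antibody was added, and TR-FRET was read after 30 min.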

Assay [3] has as its target Pim-3 (Homo sapiens (Human), UniProt Q86V86). Nature of the assay: Pim-3 kinase assay (AlphaScreen, Biotin-labeled BAD peptide substrate). Particulars: 1 mM ATP; read-out: Pim3 IC50. The procedure, abridged:
as §1
(In general: Alpha assays give light when donor and acceptor beads are brought close together.)

Sequence of Pim-2 (Q9P1W9 whole entry): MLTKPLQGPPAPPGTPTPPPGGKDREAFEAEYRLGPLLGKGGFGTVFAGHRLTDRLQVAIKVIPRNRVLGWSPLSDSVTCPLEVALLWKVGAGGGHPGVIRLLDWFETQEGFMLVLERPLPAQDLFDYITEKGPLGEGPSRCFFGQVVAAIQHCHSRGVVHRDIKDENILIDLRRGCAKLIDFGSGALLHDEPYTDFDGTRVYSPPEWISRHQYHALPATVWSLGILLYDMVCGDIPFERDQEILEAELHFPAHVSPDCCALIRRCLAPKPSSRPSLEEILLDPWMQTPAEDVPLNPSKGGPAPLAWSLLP
Sequence of Pim-1 (P11309 whole entry): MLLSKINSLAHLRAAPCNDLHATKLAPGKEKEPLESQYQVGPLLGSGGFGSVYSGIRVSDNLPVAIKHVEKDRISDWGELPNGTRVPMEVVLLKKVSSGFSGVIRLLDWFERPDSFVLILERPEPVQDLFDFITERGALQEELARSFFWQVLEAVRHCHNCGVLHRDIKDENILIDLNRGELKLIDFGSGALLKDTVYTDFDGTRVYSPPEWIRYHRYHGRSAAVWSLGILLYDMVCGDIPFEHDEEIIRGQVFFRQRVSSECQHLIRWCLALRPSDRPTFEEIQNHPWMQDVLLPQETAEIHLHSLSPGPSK

Broadly, the IC50 is the point on the concentration scale where inhibition reaches its midpoint. Turning to `C[C@@H]1C[C@H](N)C[C@H](c2ccncc2NC(=O)c2ccn3ncc(-c4c(F)cc(CO)cc4F)c3n2)C1` [Example 81, N-{4-[(1R,3S,5S)-3-Amino-5-methylcyclohexyl]pyridin-3-yl}-3-[2,6-difluoro-4-(hydroxymethyl)phenyl]pyrazolo[1,5-a]pyrimidine-5-carboxamide], the IC50 is no more than 10 nM in assay [1], no more than 100 nM in assay [2] and no more than 10 nM in assay [3].

For the compound `CCc1cc2nc(C(=O)Nc3cnccc3N3C[C@@H](N)[C@H](O)[C@@H](C)C3)ccc2s1` [Example 85, N-(4-((3R,4R,5S)-3-amino-4-hydroxy-5-methylpiperidin-1-yl)pyridin-3-yl)-2-ethylthieno[3,2-b]pyridine-5-carboxamide], the values for the IC50 in assay [1], in assay [2] and in assay [3] were no more than 10 nM, no more than 100 nM and no more than 10 nM, respectively.

Turning to `COc1ccc(F)c(-c2coc3ccc(C(=O)Nc4cnccc4N4C[C@H](C)C[C@H](N)C4)nc23)c1F` [Example 22, N-(4-((3S,5R)-3-Amino-5-methylpiperidin-1-yl)pyridin-3-yl)-3-(2,6-difluoro-3-methoxyphenyl)furo[3,2-b]pyridine-5-carboxamide], the results for the IC50 in assay [1], in assay [2] and in assay [3] were no more than 10 nM, no more than 100 nM and no more than 10 nM, respectively.

As for `C[C@@H]1C[C@H](N)CN(c2ccncc2NC(=O)c2ccc3sc(Cc4ccccc4)cc3n2)C1` [Example 54, N-(4-((3S,5R)-3-Amino-5-methylpiperidin-1-yl)pyridin-3-yl)-2-benzylthieno[3,2-b]pyridine-5-carboxamide], the IC50 was no more than 10 nM in assay [1], 100 to 1000 nM in assay [2] and no more than 10 nM in assay [3].
